For data set [1], the system named is STZ induced diabetic mice model. Kind of data set: Efficacy in streptozotocin (STZ) induced diabetic mice model. It counts as in vivo, C57BL/6J mice. The procedure:
After acclimatization in the animal facility for one week, 6-8 weeks old C57BL/6J mice were administered low dose STZ at 40 mg/kg in citrate buffer for 5 consecutive days to establish a TID animal model. Mice with blood glucose greater than 16.7 mmol/L at 5 days post last STZ injection were included in the study. These mice were then treated with INGAP-PP (Peptide 1) or Peptide 7 at the closes of 5 mg/kg (2.5 mg/kg, bid (twice a day)) or 25 mg/kg (12.5 mg/kg, bid) for 20 days before sacrifices. Two additional groups of diabetic mice were administered either saline or a peptide (Peptide 3) composed of a scrambled sequence of amino acids from Peptide 1 as control groups. Blood glucose and insulin levels were measured, and 20 days post the last dosing of test agents, an oral glucose tolerance test (OGTT) was performed in 6 hour fasted animals to determine the effect of Peptide 1 and Peptide 7. Blood samples obtained from the tail cut for glucose determination were detected with an ACCU-CHEK™ glucometer (Roche, ACCU-CHEK® Active), and insulin levels were determined with Rat/Mouse Insulin Elisa kit (Millipore, Billerica, Mass. USA). For the OGTT, after the measurement of the basal glucose concentration (T=−30 min), mice received an oral glucose challenge at 2 g/kg and glucose values were determined by glucometer at 0, 15, 30, 60, 90 and 120 min.

The nature of data set [2]: Peptide stability in culture medium. It counts as physicochemical. As to conditions: F-12K medium, 0.25 mg/mL, 37° C., 0-72 hours, HPLC, FIG. 2. The protocol: To determine the stability of peptides in culture medium, a certain amount of selected peptides was accurately weighed and dissolved in distilled water to 5 mg/mL as a stock solution. The stock solution was diluted to 0.25 mg/mL with F-12K medium (Gibco-BRL, Gaithersburg, Md., USA) as working solution. A volume of 100 μL of each working solution was transferred into individual sample vials. The sample vials were incubated in a 37° C. incubator for 0, 24, 48 and 72 hours before being analyzed and quantitated by HPLC.

The test system of the next data set is ARIP cells. The data set can be described thus: ARIP cell proliferation (BrdU ELISA / CellTiter-Glo). It counts as cell-based, rat. The note with it: 100 nM peptide, FIG. 1. The protocol:
To measure cell proliferation, a bromodeoxyuridine (BrdU) ELISA assay was performed. Briefly, ARIP cells (ATCC (American Type Culture Collection), Manassas, Va. USA), a rat pancreatic ductal cell line, were cultured in F-12K medium (Gibco-BRL, Gaithersburg, Md., USA) containing 10% fetal bovine serum (FBS; HyClone, Thermo Fisher Scientific Inc.; Waltham, Mass. USA), 100 μg/ml streptomycin and 100 μg/ml penicillin in a cell incubator. ARIP cells were seeded into 96-well culture plates at 8000 or 0 (as blank control) cells/well in a volume of 50 μl cell culture medium and incubated overnight for the following experiments. On the second day, after replacing the medium with medium without serum, 50 μl serum-free cell culture medium containing test peptides at a series concentrations (final concentrations were 10 μM, 5 μM, 1 μM, 500 nM, 100 nM, 50 nM, 10 nM and 1 nM) were added to seeded cells. Medium without compound was added to negative control and background control wells. […] The absorbance at 450 nm (reference wavelength 690 nm) on an EnVision™ plate reader (Perkin Elmer, Boston, Mass.) within 5 min. after adding the stop solution was measured.
To test for cell viability, a CellTiter-Glo™ (CTG) assay (Promega, Madison, Wis.) was performed. […] Luminescence signal was quantified on an EnVision™ plate reader after a 10 minute incubation at room temperature.
In general terms: Incorporation of labelled thymidine or its analogues reports DNA synthesis.

In the next data set the test system is normal C57BL/6J mice. The data set can be described thus: Induction of small β-cell clusters in normal mice. Type of data set: in vivo. The procedure: After a 1-week acclimation, C57BL/6J female mice were randomly divided into 4 groups. The two control groups received either 10 mL/kg sterile normal saline (n=4) or scrambled peptide (Peptide 3, 25 mg/kg) (n=5) via subcutaneous injection for 10 days. The other two groups received INGAP-PP (Peptide 1) or INGAP-PP analog Peptide 7 at a dose of 25 mg/kg per day respectively (n=7 per group) for the same period. Body weight and 6 hour fasting blood glucose were measured before treatment and after the last dosing of treatment. Plasma and pancreatic insulin were also measured at the end of the study. On day 11, the pancreas was removed from each animal, cleared of fat and lymph nodes, weighed, and fixed in 10% neutral buffered formalin (NBF) for no longer than 24 hours before processing for morphometric analysis.
Immunohistochemistry analysis was used to determine pancreatic islet size distribution.

Data set [3] can be described thus: Peptide stability in human plasma. Type of data set: in vitro ADME. As to conditions: 100 μg/mL, 37° C., 0-120 min, FIG. 4. The protocol: (§1) The stability of peptides was also tested in mouse and human plasma. Briefly, a certain amount of peptides and eucatropine powder (positive control) was accurately weighed. Test compounds were dissolved in 50% methanol-water solution and diluted to 20 mg/mL, and eucatropine was dissolved in dimethylsulfoxide (DMSO) and diluted to 10 mM, as a stock solution. Eucatropine stock solution was diluted to 0.2 mM with DMSO as a working solution. A stop reagent was prepared containing 200 ng/mL midazolam and tolbutamide in acetonitrile. A volume of 300 μL of stop solution was added to each well of a 96-well deep-well plate placed on ice beforehand.
(§2) For the stability studies, peptides and eucatropine were spiked into plasma respectively, mixed well, and then 100 μL of each mixture solution was transferred into the pre-cooled stop reagent as 0 time point sample. The remaining mixtures were incubated in a 37° C. water bath with shaking at 100 rpm (n=2). The final incubation concentration was 1 μM for eucatropine and 100 μg/mL for all test compounds.
At desired time points, 100 μl, of incubation mixture was transferred to the stop reagent to precipitate proteins. […] The samples were analyzed by LC-MS/MS.
Slope was calculated by plotting the natural logarithm of the percentage or remaining amount of test compounds and time, and T12 was calculated in accordance with the following formula. […]

The nature of data set [4]: Peptide stability in mouse plasma. It counts as in vitro ADME. The note with it: 100 μg/mL, 37° C., LC-MS/MS, FIG. 3 and FIG. 5. The protocol:
as §1, §2
At desired time points, 100 μl, of incubation mixture was transferred to the stop reagent to precipitate proteins. Samples were vortexed and centrifuged at RCF 5000-g for 10 minutes, and supernatant was transferred to a test plate. The samples were analyzed by LC-MS/MS.
Slope was calculated by plotting the natural logarithm of the percentage or remaining amount of test compounds and time, and T12 was calculated in accordance with the following formula.
For stability in mouse plasma, the incubation time was 0, 5, 15, 30 and 60 min for Peptide 1 and eucatropine, 0, 15, 30, 60, 120, 240 and 480 min for Peptide 12, Peptide 16 and Peptide 29.
In another stability study in mouse plasma, the incubation time was 0, 30, 60 and 120 min for Peptide 2 and eucatropine; 0, 30, 60, 120, 240 and 960 min for Peptide 52 and Peptide 54.

Another data set in a line: Pharmacokinetics in rat. The note with it: mouse and rat, 25 mg/kg. Type of data set: in vivo, Sprague-Dawley (SD) rats. The procedure:
After 7 days acclimation, male Sprague-Dawley (SD) rats weighing 210-250 g, or male C57BL/6 mice, weighing 19-24 g, in good health were used in the study. Peptide 1, Peptide 12 and Peptide 16 were dissolved in sterile normal saline and then they were injected via subcutaneous (sc) bolus or intravenous (iv) bolus at the dose level of 25 mg/kg. Three animals in each group were used for blood collection at the time point of 5 min, 15 min, 30 min, 1 h, 2 h, 4 h, 6 h, 8 h and 24 h post-dose. Blood samples (approximately 400 μL) were collected and placed into tubes containing EDTA-K2 and centrifuged at 8000 rpm for 6 minutes at 4° C. to separate plasma front the samples. The resulting plasma was stored frozen at −80° C. until being analyzed. Plasma concentrations of peptides were determined using tandem mass spectrometry (LC-MS/MS) analysis. A non-compartmental module of WinNonlin® Professional 5.2 (Pharsight; St. Louis, Mo.), was used to calculate PK parameters. The abbreviation AUC(0-t) represents area under the curve front the time of dosing to the time of the last observation, the AUC(0-∞) represents area under the curve from the time of dosing to infinity, and the Cmax represents maximum concentration detected.

The subject of a further data set is pancreatic islets. The data set can be described thus: Glucose-stimulated insulin secretion (GSIS) of isolated islets. Type of data set: cell-based, Sprague-Dawley (SD) rats. As to conditions: rat islets, 12.0 mM glucose, 10 μg/mL peptide (GLP-1 100 nM), 60 min, FIG. 8. The protocol: The pancreases were procured from male adult Sprague-Dawley (SD) rats. After 7 days acclimation, the animals were sacrificed by cervical dislocation and the entire pancreas was removed and digested with collagenase to isolate islets. After digestion, islets were maintained at 37° C. in RPMI 1640 (Carlsbad, Calif., USA) pH 7.4, containing 10% (v/v) fetal calf serum, 1% penicillin/streptomycin, and 10 mM glucose in a humid atmosphere (5% CO2/95% O2), without the addition of any compound (control), or with the addition of 100 nM glucagon like peptide-1 (GLP-1); or 10 μg/mL Peptide 1, Peptide 12, or Peptide 16, as summarized in Table 4 below. Cultured islets were rinsed in Krebs-Ringer bicarbonate buffer (KRB), pH 7.4, previously gassed with a mixture CO2/O2 (5/95%), and pre-incubated in 1.0 ml KRB containing 0.5% (w/v) BSA and 1.5 mM glucose at 37° C. for 45 min. After this period, groups of 5 islets were incubated in 0.6 ml KRB with the addition of 1.5 or 12.0 mM glucose, with or without the addition of peptides for 60 min. At the end of the incubation period, aliquots of the medium were collected for insulin quantitation.

With “H-IGLHDPSHGTLPAGS-OH [Peptide 7, H-IGLHDPSHGTLPAGS-OH]”, the “body weight or pancreas weight” value in data set [1] (5 mg/kg or 25 mg/kg for 20 days) is listed as “did not affect”. Also, the plasma insulin levels entry in data set [1] (25 mg/kg dose group, end of 20-day period, FIG. 6B) is “significantly different from saline controls and almost restored to the level of the naive group”. In data set [1] (OGTT 2 g/kg glucose, day 21, FIG. 6C), the “glucose tolerance (OGTT)” value is listed as “improved glucose tolerance”. For the same substance, the “stability in culture medium” value in data set [2] was “significantly more stable than INGAP-PP peptide”. For the same substance, the “percentage increase in cell number” value in the data set with ARIP cells is listed as “significantly higher percentage increase in cell number”. In the data set on normal C57BL/6J mice (normal female C57BL/6J mice, 25 mg/kg per day for 10 days, islet size as Log [μm^2], FIG. 7), the “number of islets, islet size ranging from 2.1 to 0.7” value is “increased significantly”. Besides, the “body weight, blood glucose, plasma insulin, pancreas insulin, or pancreas weight” value with normal C57BL/6J mice (normal mice, 25 mg/kg sc for 10 days, compared to saline group) is given as “did not affect”.
For “Ac-IGLHDPSHGTLPNGS-OH [Peptide 16, Ac-IGLHDPSHGTLPNGS-OH]”, in data set [3], the “stability in human plasma” value was “good stability in human plasma and were significantly more stable than INGAP-PP”. In addition, the “stability in mouse plasma” value in data set [4] is “good stability in mouse plasma and were more stable than INGAP-PP”. The “PK properties (AUC and Cmax) compared to INGAP-PP” value in the data set “Pharmacokinetics in rat” is “marked improved PK properties”. In the data set with pancreatic islets, the “glucose-stimulated insulin secretion versus islets without peptides” value is given as “released significantly more insulin”.

(Values after patent publication US10899815B2, “Compositions and methods of using islet neogenesis peptides and analogs thereof” (SHENZHEN HIGHTIDE BIOPHARMACEUTICAL, LTD., priority 2013, dated 2021).)
